Active and inactive are the calls of the source.

The nature of experiment [1]: Luminescence Cell-Based Dose Confirmation HTS to Identify Activators of 5'UTR Stem-Loop Driven Alpha-Synuclein mRNA Translation in H4 Neuroglioblastoma Cells. [Related pubchem assays: 1829 (Project Summary), 1814 (Primary HTS)]. Format: functional.
Experiment [2] can be described thus: Luminescence Cell-Based Dose Response HTS to Identify Activators of Luciferase Translation or Activity in H4 […] Cells. [Related pubchem assays: 1829 (Project Summary), 1814 (Primary HTS)]. The format is functional.
Experiment [3] has as its system H4. Nature of the experiment: Luminescence Cell-Based Dose Response HTS to Identify Activators of 5'UTR Stem-Loop Driven Prion Protein mRNA Translation in H4 Neuroglioblastoma Cells. [Related pubchem assays: 1829 (Project Summary), 1814 (Primary HTS)]. The format is functional. Conditions: Homo sapiens.
A short description of experiment [4]: DNA binding of candidate compounds, dose response, artefact control for RAD54 inhibitor project, biochemical, fluorescence polarization, cherry-pick (AID 651673). The format is functional. In general terms: In fluorescence polarisation assays a small probe gives low polarisation when free and higher when bound to something large.
The target of experiment [5] is T1, DNA repair and recombination protein RAD54-like (Homo sapiens, UniProt Q92698).
T1 sequence (Q92698 whole entry): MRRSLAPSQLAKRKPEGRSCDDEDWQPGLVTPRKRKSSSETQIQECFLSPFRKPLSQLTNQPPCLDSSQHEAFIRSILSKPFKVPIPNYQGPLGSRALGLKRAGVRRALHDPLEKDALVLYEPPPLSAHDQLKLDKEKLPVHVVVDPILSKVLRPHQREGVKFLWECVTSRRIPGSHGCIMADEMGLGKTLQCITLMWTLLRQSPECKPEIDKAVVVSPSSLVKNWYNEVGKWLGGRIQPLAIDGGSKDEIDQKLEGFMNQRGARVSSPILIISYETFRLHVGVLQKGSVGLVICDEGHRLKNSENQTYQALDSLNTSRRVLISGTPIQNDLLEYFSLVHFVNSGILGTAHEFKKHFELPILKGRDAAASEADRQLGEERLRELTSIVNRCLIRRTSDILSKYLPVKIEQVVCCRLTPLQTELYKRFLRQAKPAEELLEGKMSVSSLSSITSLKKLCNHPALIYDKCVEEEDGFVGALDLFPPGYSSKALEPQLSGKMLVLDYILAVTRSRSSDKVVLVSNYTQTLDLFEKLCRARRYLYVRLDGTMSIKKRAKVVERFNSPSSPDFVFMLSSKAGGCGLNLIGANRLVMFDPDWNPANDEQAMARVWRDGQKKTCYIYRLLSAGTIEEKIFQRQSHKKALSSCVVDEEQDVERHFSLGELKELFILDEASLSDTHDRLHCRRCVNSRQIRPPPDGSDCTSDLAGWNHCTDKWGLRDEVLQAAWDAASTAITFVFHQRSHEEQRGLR
Nature of the experiment: inhibitors of human RAD54 branch migration, confirmation, biochemical, fluorescence, cherry-picked samples, dose series (AID 651657). The format is functional.

The target in experiment [6] is SWI/SNF-related matrix-associated actin-dependent regulator of chromatin subfamily A member 2 (Homo sapiens, UniProt P51531). Nature of the experiment: Luminescence-based cell-based high throughput dose response assay to identify activators of the function of SWI/SNF related, matrix associated, actin dependent regulator of chromatin, subfamily a, member 2 (SMARCA2, BRM). The format is functional.

A short description of experiment [7]: Counterscreen for activators of the function of SWI/SNF related, matrix associated, actin dependent regulator of chromatin, subfamily a, member 2 (SMARCA2, BRM): Luminescence-based cell-based high throughput dose response assay to identify non-selective compounds using the VP16 reporter assay. Format: functional. Background: The purpose of a counterscreen is to sort out artefacts and off-target activity.

In experiment [8] the target is T2, DNA repair protein RAD52 homolog (Homo sapiens, UniProt P43351).
T2 sequence (P43351 whole entry): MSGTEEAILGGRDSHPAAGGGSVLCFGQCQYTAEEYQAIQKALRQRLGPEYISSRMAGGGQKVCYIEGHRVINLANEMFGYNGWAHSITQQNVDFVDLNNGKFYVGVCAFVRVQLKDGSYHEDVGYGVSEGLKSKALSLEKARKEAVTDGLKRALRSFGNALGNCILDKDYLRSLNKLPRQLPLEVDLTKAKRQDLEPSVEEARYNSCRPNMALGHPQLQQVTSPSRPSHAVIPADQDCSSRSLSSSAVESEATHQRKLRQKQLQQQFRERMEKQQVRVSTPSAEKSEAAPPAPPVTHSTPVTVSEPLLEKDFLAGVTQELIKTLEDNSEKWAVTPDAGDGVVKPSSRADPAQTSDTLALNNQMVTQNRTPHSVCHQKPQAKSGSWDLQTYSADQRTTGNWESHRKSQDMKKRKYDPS
The format is functional, biochemical.

Experiment [9] addresses DNA (cytosine-5)-methyltransferase 1 (Homo sapiens, UniProt P26358). Description: DNMT1 methyltransferase inhibitors, confirmation, biochemical, fluorescent molecular beacon (AID 602386). Format: functional.
Experiment [10] addresses T3, Probable nicotinate-nucleotide adenylyltransferase (Staphylococcus aureus (strain N315), UniProt P65502). Format: functional, Staphylococcus aureus subsp. aureus N315.
The target of experiment [11] is T3, Probable nicotinate-nucleotide adenylyltransferase. The format is functional, Staphylococcus aureus subsp. aureus N315. The settings on record: read-out: IC50_Mean.
In experiment [12] the target is Albumin (Bos taurus, UniProt P02769). Description: Counterscreen for inhibitors of T-cell receptor (TCR)-CD3 interaction: Fluorescence-based biochemical high throughput dose response assay to identify inhibitors of T-cell receptor (TCR)-CD3 interaction using a TAMRA-labeled BSA probe. The format is functional.
For experiment [13], the target named is Kallikrein-7 (Homo sapiens, UniProt P49862). Nature of the experiment: Fluorescence Intensity-based biochemical primary high throughput dose response assay to identify activators of kallikrein-7 (K7) zymogen.
Experiment [14] is described as follows: AlphaScreen signal interference compounds, dose response, artefact control for ARNT-TACC3 interaction inhibitor project, biochemical, luminescence, cherry-pick (AID 651705).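 Note: AlphaScreen bead proximity signal that flags compounds interfering with the detection technology; potency reflects signal decrease which marks the compound as an assay artifact.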 The format is functional.
A short description of experiment [15]: Artemis endonuclease inhibitor potency, dose response, biochemical, fluorescence intensity (AID 720701).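 Note: Artemis endonuclease enzyme.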 The format is functional.
A short description of experiment [16]: microbe, parasite or virus in culture. Format: functional. The settings on record: Mycobacterium tuberculosis.
Experiment [17] has as its target Neurotensin receptor type 1 (Homo sapiens, UniProt P30989). The format is functional.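 Note: Image-based confirmatory dose-response assay measuring agonist activity at NTR1; NTR1-expressing U2OS osteosarcoma cells imaged for beta-arrestin GFP spot formation; agonist potency where compounds increase beta-arrestin recruitment.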
Experiment [18] concerns the target Heat shock protein HSP 90-alpha (Homo sapiens, UniProt P07900). Format: functional, organism-based.
Experiment [19] is described as follows: A Cell Based Secondary Assay to Explore Cytotoxicity in THP-1 Cells of Compounds that Modulate Mycobacterium tuberculosis in Media Containing Glycerol versus Media without Glycerol (2). The format is functional.
A short description of experiment [20]: Vero cell cytotoxicity, cytotoxicity control for M. tuberculosis inhibitor project, purified and synthesized samples, set 3 (AID 504684). Format: functional. Conditions: […].
Experiment [21] is described as follows: A Cell Based Secondary Assay to Explore Cytotoxicity in HepG2 Cells of Compounds that Modulate Mycobacterium tuberculosis in Media Containing Glycerol versus Media without Glycerol (2). Format: functional.
The target in experiment [22] is Hepatocyte nuclear factor 4-alpha (Homo sapiens, UniProt P41235). Format: functional, cell-based.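 Note: biochemical luminescence-based dose-response counterscreen measuring inhibition of HNF4 dimerization, run alongside a screen for blockers of ABHD5–perilipin-5 interaction; split luciferase complementation of HNF4 fusion proteins in cell lysate measuring dimerization.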
Experiment [23] addresses Beta-galactosidase (Escherichia coli, UniProt Q8VNN2). Nature of the experiment: beta-galactosidase enzyme inhibitors and activators, dose response, artefact control for CCR6 antagonist project, biochemical, E. coli enzyme, set 3 (AID 504712). Format: functional.
Experiment [24] can be described thus: Shn3 3'UTR reporter inhibitors, dose response, cell-based, Clone20 osteoblasts, firefly luciferase, cherry-picked (AID 624132).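 Note: firefly luciferase luminescence from reporter carrying the Shn3 3'UTR in osteoblasts.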 The format is functional.
Experiment [25] in a line: HepG2 cell cytotoxicity, dose response, cytotoxicity control for Shn3 inhibitor project, CellTiter-Glo, cherry-picked (AID 624134). Format: functional, cell-based. A general note: Cellular ATP, detected with luciferase, serves as a proxy for viable cell number.
A short description of experiment [26]: control 3'UTR Renilla luciferase suppression, dose response, counter-screen for Shn3 inhibitor project, cell-based, Clone20-Shn3RL, cherry-picked (AID 624133). The format is functional.
Experiment [27] can be described thus: Fluorescence-based cell-based high throughput dose response assay for inhibitors of the interaction of nucleotide-binding oligomerization domain containing 2 (NOD2) and the receptor-interacting serine-threonine kinase 2 (RIPK2). Conditions: Homo sapiens. The format is functional.
Experiment [28] deals with Beta Lactamase (Pseudomonas aeruginosa, UniProt Q932Y6). Nature of the experiment: beta-lactamase reporter inhibitor potency, dose response, artefact control for NOD2-RIPK2 interaction inhibitor project, BLA reporter cells, FRET fluorescence (AID 651552). The format is functional, cell-based.
Experiment [29] concerns the target Paired box protein Pax-8 (Homo sapiens, UniProt Q06710). Description: inhibitors of PAX8-driven TPO luciferase reporter, dose response, RMG-I cells, cherry-pick (AID 687027).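 Note: luciferase reporter driven by Pax8 target thyroperoxidase promoter measured by SteadyGlo luminescence.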 Format: functional, cell-based.
Experiment [30] in a line: non-specific cell cytotoxicity, dose response, cytotoxicity control for PAX8 inhibitor project, plate reader, dry powder samples (AID 743021). The format is functional, cell-based.
Experiment [31] concerns HEK293. Nature of the experiment: cells. The settings on record: Homo sapiens.
The test system of experiment [32] is HEK293. Nature of the experiment: cells. Conditions: Homo sapiens. This is another data set of the same source.
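Throughout, for IC50 Mean: confirmatory dose-response retesting of NadD inhibitor hits first found in an ultra-high-throughput screen.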

T3 sequence (P65502 whole entry): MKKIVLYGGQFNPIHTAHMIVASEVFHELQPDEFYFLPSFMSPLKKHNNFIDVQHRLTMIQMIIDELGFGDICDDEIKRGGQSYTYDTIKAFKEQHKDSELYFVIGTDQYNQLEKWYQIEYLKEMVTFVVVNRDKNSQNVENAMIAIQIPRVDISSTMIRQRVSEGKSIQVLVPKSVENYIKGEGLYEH
Kallikrein-7, sequence (P49862 whole entry): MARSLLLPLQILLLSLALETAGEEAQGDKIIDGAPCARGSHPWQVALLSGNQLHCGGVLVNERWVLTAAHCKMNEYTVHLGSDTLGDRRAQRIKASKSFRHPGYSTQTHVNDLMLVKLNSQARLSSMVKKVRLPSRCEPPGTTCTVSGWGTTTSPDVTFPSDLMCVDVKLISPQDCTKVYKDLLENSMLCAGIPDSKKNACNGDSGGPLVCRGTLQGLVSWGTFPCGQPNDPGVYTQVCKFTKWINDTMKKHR
Hepatocyte nuclear factor 4-alpha, sequence (P41235 whole entry, the tested form may be a part): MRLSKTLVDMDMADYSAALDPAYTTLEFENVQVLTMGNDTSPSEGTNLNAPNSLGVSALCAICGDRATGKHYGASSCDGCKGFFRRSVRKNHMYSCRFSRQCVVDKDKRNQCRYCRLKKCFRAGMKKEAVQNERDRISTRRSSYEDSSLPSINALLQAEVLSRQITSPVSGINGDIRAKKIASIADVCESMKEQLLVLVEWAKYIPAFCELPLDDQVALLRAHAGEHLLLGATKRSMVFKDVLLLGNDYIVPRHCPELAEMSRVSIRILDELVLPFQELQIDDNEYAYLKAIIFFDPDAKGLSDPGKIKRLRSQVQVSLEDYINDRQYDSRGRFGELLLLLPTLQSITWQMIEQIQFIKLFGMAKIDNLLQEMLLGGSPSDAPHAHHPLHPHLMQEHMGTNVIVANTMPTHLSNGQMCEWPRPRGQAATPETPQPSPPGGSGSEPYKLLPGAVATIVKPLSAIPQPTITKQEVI
Beta Lactamase, sequence (Q932Y6 whole entry): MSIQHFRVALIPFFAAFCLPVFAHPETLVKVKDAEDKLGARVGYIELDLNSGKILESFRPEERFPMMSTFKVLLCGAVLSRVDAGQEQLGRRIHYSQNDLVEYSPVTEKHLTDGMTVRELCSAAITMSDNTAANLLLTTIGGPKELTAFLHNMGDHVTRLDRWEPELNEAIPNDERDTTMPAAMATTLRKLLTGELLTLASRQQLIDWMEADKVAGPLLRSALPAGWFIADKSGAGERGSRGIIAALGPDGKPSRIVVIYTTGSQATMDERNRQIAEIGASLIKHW
Beta-galactosidase, sequence (Q8VNN2 whole entry): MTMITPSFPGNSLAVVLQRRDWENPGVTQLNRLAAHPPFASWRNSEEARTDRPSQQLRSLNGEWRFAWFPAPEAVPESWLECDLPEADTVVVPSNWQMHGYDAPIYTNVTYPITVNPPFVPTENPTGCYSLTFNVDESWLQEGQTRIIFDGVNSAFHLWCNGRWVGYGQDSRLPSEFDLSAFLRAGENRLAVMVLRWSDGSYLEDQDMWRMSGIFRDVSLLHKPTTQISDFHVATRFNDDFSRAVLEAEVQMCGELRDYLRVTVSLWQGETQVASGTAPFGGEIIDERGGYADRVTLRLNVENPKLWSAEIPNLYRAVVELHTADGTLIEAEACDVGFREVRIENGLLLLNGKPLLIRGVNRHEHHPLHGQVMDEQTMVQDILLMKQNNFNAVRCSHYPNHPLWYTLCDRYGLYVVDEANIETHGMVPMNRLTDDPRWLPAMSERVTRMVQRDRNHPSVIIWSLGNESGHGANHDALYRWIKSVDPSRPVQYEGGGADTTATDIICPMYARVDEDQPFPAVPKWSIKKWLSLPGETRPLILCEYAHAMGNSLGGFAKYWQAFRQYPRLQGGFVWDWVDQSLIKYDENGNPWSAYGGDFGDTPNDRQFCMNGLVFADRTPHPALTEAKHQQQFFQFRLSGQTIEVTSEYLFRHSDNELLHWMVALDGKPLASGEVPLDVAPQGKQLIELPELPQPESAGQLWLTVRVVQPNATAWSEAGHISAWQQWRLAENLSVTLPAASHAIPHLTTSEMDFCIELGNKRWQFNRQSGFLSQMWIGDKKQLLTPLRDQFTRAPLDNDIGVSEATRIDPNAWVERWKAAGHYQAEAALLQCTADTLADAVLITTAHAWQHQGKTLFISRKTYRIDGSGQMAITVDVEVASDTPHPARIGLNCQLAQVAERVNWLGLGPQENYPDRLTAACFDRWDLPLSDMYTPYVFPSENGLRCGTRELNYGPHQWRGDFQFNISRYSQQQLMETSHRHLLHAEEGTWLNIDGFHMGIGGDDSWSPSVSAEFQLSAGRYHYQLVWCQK
DNA (cytosine-5)-methyltransferase 1, sequence (P26358 whole entry): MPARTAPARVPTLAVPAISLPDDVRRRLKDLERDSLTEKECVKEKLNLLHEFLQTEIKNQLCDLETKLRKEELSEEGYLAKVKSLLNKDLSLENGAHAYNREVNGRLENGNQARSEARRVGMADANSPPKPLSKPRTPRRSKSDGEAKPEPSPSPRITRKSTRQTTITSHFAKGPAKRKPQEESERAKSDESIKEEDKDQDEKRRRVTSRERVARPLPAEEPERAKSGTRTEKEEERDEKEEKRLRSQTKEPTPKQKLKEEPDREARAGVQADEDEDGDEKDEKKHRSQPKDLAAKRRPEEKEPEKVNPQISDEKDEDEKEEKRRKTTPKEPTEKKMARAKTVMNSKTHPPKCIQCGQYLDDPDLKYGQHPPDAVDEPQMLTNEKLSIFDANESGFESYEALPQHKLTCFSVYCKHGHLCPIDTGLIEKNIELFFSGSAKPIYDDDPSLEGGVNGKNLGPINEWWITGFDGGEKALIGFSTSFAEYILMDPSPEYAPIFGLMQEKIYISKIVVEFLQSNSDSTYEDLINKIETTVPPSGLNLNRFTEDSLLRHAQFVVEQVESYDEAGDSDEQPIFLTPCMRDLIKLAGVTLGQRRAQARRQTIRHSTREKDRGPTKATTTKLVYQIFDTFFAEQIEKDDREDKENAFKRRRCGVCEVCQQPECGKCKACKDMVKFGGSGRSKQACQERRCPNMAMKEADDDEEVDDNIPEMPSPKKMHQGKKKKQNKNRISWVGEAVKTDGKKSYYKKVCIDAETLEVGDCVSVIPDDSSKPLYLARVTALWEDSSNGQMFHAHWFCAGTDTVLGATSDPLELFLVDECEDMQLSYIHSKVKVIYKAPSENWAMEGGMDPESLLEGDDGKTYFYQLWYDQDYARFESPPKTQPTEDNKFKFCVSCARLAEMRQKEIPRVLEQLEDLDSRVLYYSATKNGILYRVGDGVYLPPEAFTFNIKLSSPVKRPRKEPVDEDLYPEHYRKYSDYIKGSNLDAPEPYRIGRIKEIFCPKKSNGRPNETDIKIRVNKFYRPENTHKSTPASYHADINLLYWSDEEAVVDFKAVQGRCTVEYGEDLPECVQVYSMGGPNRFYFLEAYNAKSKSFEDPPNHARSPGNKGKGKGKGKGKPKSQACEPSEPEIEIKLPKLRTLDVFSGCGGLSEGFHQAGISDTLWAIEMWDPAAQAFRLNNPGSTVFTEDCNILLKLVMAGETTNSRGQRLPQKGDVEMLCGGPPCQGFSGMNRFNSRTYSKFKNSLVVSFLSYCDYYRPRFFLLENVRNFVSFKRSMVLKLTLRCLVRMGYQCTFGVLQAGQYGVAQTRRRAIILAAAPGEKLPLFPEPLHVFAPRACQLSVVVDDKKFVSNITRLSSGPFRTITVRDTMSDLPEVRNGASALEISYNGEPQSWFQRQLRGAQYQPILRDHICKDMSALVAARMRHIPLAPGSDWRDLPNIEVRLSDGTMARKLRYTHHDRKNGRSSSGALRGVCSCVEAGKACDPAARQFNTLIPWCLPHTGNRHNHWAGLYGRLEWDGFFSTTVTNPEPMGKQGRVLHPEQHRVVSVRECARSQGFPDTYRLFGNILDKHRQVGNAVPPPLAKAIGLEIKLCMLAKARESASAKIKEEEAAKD
Neurotensin receptor type 1, sequence (P30989 whole entry): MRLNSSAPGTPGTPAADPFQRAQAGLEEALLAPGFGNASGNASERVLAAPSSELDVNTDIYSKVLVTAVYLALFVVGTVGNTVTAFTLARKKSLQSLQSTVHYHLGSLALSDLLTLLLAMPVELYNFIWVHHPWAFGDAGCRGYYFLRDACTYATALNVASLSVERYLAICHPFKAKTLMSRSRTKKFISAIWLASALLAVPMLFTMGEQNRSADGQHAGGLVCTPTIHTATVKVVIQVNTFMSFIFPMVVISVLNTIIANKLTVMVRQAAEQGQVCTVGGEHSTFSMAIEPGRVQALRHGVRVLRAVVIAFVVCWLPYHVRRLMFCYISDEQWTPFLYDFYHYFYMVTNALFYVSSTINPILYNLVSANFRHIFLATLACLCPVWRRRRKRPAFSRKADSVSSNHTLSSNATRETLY
Paired box protein Pax-8, sequence (Q06710 whole entry): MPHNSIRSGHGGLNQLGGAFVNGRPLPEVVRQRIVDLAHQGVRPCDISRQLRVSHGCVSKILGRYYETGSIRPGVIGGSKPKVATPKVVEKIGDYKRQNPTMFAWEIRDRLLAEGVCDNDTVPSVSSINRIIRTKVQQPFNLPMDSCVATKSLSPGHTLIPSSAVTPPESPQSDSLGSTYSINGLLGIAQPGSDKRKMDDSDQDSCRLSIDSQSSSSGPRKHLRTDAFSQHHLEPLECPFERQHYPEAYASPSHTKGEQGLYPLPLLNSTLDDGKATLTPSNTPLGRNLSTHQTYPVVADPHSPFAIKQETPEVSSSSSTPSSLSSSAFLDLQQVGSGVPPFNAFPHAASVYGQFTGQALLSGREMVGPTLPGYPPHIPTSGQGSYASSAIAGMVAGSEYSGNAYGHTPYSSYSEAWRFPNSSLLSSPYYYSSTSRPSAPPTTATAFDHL

As usually defined, the EC50 is the midpoint of the concentration-response curve. As a reminder, the AC50 is the midpoint of the concentration-response curve, whichever way the signal moves. Turning to `CCN(CC)CCn1c2ccccc2c2nc3ccccc3nc21`, the concentration for a half-maximal effect (EC50) is 31.8 µM (active) in experiment [1]; 15.1 µM (active) in experiment [2]; 29.6 µM (active) in experiment [3]; 10.1 µM (inactive) in experiment [6]; > 91.1 µM (inactive) in experiment [7]. The values for the concentration at half-maximal activity (AC50) in experiment [4], in [5] and in [8] were 64 µM (active), 7.12 µM (active) and 3.27 µM (active), respectively.
Take `COC(=O)C1CCN(C(=O)c2cc(-c3ccco3)nc3ccccc23)CC1`: the IC50 is 7.31 µM (active) in experiment [9], 18.8 µM (active) in [10], 44.6 µM (active) in experiment [11] and > 94.1 µM (inactive) in experiment [12]. Further, the EC50 in [13] was > 69.5 µM (inactive).
As for `Cc1ccc(Nc2nc(N)nc(CN3CCCCCC3)n2)cc1`, the AC50 in [14] was 117 µM (active). In addition, the IC50 in [15] was > 20 µM (inactive).
For the molecule `COC(=O)c1cc(=O)n(-c2ccc(F)cc2)/c(=N/c2ccc(F)cc2)s1`, the CC50 was 13.9 µM (active) in experiment [16], 21.5 µM (active) in experiment [19], 12.9 µM (active) in experiment [20] and 24.1 µM (active) in [21]. Also, the EC50 in [17] is 11.1 µM (active). For the same molecule, the half-maximal activity concentration (AC50) in experiment [18] is 8.18 µM (active). In addition, in experiment [22], the IC50 was 4.1 µM (active).
For `C=C1CC(Cn2cc(Br)c(=O)[nH]c2=O)(c2ccc(-c3ccccc3)cc2)OC1=O` (configuration not stated), the IC50 in experiment [23] was > 66.6 µM (inactive); in experiment [27], 2.2 µM (active); in [28], 12.2 µM (inactive). Also, the concentration at half-maximal activity (AC50) in experiment [24] was 2.67 µM (active); in [25] it was 13.6 µM (active); in experiment [26] it was 4.16 µM (active); in [29], 6.49 µM (active); in [30], 55.6 µM (active). The EC50 in [31] and in experiment [32] was > 59.7 µM (inactive) in each case.

The record behind these values is ChEMBL document CHEMBL1201862, “PubChem BioAssay data set” (2004).
